Among the test systems are BT-549 breast; HOP-62 NSCLC; HOP-92 NSCLC; MOLT-4 leukemia; NCI-H23 lung; SF-268 CNS; SF-295 CNS; SK-MEL-5 melanoma; SR leukemia; T-47D breast.
Holding throughout (test): inhibition of tumour cell growth, NCI panel, 48 h

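Five concentrations, 48 hours, 96-well plates. TGI marks complete inhibition of growth.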 Some results are limits rather than exact numbers.

`COc1ccc2nc3c(C)cc4ccccc4n3c2c1`: the TGI with BT-549 breast, in the assay with HOP-62 NSCLC, with HOP-92 NSCLC, in the assay on MOLT-4 leukemia, in the assay with NCI-H23 lung and in the assay with SF-268 CNS was above 100 µM throughout. Moreover, the TGI in the assay with SF-295 CNS, with SK-MEL-5 melanoma, in the assay on SR leukemia and in the assay on T-47D breast was above 100 µM each time.
On to `O=C1CNc2cc(N3CCOCC3)ccc2N1`, for which the TGI in the assay on BT-549 breast, in the assay on HOP-62 NSCLC, in the assay with HOP-92 NSCLC, in the assay on MOLT-4 leukemia, in the assay with NCI-H23 lung and in the assay on SF-268 CNS was above 100 µM each time. Further, the TGI in the assay on SF-295 CNS, with SK-MEL-5 melanoma, in the assay on SR leukemia and in the assay on T-47D breast was above 100 µM in each case.
Regarding `CCOc1cc(/C=N/c2nc3cc4sc(/N=C/c5ccc(O)c(OCC)c5)nc4cc3s2)ccc1O`, the TGI in the assay on BT-549 breast, with HOP-62 NSCLC, in the assay with HOP-92 NSCLC, with MOLT-4 leukemia, in the assay with NCI-H23 lung and in the assay on SF-268 CNS was above 100 µM each time. Besides, the TGI with SF-295 CNS, in the assay with SK-MEL-5 melanoma, in the assay on SR leukemia and in the assay on T-47D breast was above 100 µM each time.
As for `Brc1c2c(c(Br)c3nsnc13)N=S=N2`, the TGI with BT-549 breast is 26.9 µM; with HOP-62 NSCLC, 15.9 µM; with HOP-92 NSCLC, 44.8 µM; with MOLT-4 leukemia it was 68.9 µM; in the assay on NCI-H23 lung, above 69.1 µM; in the assay with SF-268 CNS it was 75.4 µM. The TGI with SF-295 CNS was above 70.8 µM; in the assay with SK-MEL-5 melanoma, 42.5 µM; with SR leukemia, 14.1 µM; with T-47D breast it was above 66.6 µM.
As for `COC(=O)[C@H](C)NC(=O)C1(CNC(=O)[C@H](C)NC(=O)OC(C)(C)C)Cc2ccccc2-c2ccccc2C1`, the TGI in the assay with BT-549 breast is above 70.3 µM; in the assay with HOP-62 NSCLC it was above 100 µM; in the assay on HOP-92 NSCLC, 21.2 µM; with MOLT-4 leukemia it was 37.6 µM; in the assay with NCI-H23 lung, 37.8 µM; with SF-268 CNS, 52.5 µM. The TGI in the assay on SF-295 CNS is 51.6 µM; with SK-MEL-5 melanoma, above 55 µM; in the assay on SR leukemia, 43.4 µM; in the assay with T-47D breast, above 62 µM.
On to `COc1ccc(C(OC(=O)[C@H](O[Si](C)(C)C(C)(C)C)[C@@H](NC(=O)c2ccccc2)c2ccccc2)c2ccc(OC)cc2)cc1`, for which the TGI with BT-549 breast, with HOP-62 NSCLC, in the assay on HOP-92 NSCLC, with MOLT-4 leukemia, in the assay with NCI-H23 lung and in the assay with SF-268 CNS was above 100 µM throughout. Further, the TGI with SF-295 CNS, with SK-MEL-5 melanoma, with SR leukemia and in the assay on T-47D breast was above 100 µM throughout.
Turning to `O=C(NNC(=S)Nc1ccc(Cl)cc1)C12CC3CC(CC(C3)C1)C2`, the TGI was 39.4 µM in the assay with BT-549 breast; 29.7 µM with HOP-62 NSCLC; 56.7 µM with HOP-92 NSCLC; 10.7 µM in the assay with MOLT-4 leukemia; 54.7 µM in the assay with NCI-H23 lung; 32 µM with SF-268 CNS. The TGI came out at 26.6 µM in the assay with SF-295 CNS, 15.5 µM in the assay on SK-MEL-5 melanoma, 4.83 µM in the assay on SR leukemia and 41.4 µM in the assay with T-47D breast.
Consider `CN1C(=O)N/C(=C\c2ccc(S(=O)(=O)N/N=C/c3ccccc3)cc2)C1=O`, for which the TGI with BT-549 breast was above 100 µM; with HOP-62 NSCLC, above 100 µM; with HOP-92 NSCLC, 75.5 µM; with MOLT-4 leukemia it was 83.7 µM; with NCI-H23 lung it was above 100 µM; in the assay with SF-268 CNS, above 100 µM. Also, the TGI in the assay with SF-295 CNS is above 100 µM; in the assay with SK-MEL-5 melanoma, 27.7 µM; in the assay with SR leukemia it was above 100 µM; in the assay with T-47D breast, above 100 µM.
On to `COc1ccc(C2CC(c3ccc(NS(=O)(=O)c4cc([N+](=O)[O-])ccc4C)cc3)=NN2S(=O)(=O)c2cc([N+](=O)[O-])ccc2C)cc1` (stereo not given), for which the TGI in the assay on BT-549 breast was above 100 µM; with HOP-62 NSCLC it was above 100 µM; with HOP-92 NSCLC, above 100 µM; with MOLT-4 leukemia, above 100 µM; in the assay with NCI-H23 lung, 78.7 µM; with SF-268 CNS, 79.9 µM. Moreover, the TGI in the assay on SF-295 CNS, in the assay with SK-MEL-5 melanoma, with SR leukemia and in the assay with T-47D breast was above 100 µM each time.
Regarding `Cc1nn(C(=O)c2ccc(Cl)cc2)c2c1C(c1ccccc1O)SC(N)=N2` (stereo not given), the TGI in the assay on BT-549 breast, in the assay with HOP-62 NSCLC, with HOP-92 NSCLC, in the assay on MOLT-4 leukemia, with NCI-H23 lung and in the assay on SF-268 CNS was above 10 µM throughout. Also, the TGI in the assay on SF-295 CNS, with SK-MEL-5 melanoma, in the assay on SR leukemia and in the assay on T-47D breast was above 10 µM in each case.
With `Cc1cc(O)c2c(c1)C(C1OC(CO)C(O)C(O)C1O)c1cc(O)cc(O)c1C2=O` (stereo not given), the TGI with BT-549 breast, in the assay with HOP-62 NSCLC, in the assay on HOP-92 NSCLC, with MOLT-4 leukemia, with NCI-H23 lung and in the assay on SF-268 CNS was above 100 µM throughout. The TGI with SF-295 CNS, in the assay on SK-MEL-5 melanoma, with SR leukemia and with T-47D breast was above 100 µM each time.
With `COc1ccc(C[n+]2cccc(O)c2)cc1`, the TGI in the assay on BT-549 breast, with HOP-62 NSCLC, in the assay with HOP-92 NSCLC, in the assay with MOLT-4 leukemia, with NCI-H23 lung and with SF-268 CNS was above 100 µM in each case. Further, the TGI in the assay with SF-295 CNS, in the assay with SK-MEL-5 melanoma, in the assay with SR leukemia and with T-47D breast was above 100 µM in each case.
In the case of `CCCCCCCCCC(=O)NCCc1c[nH]c2ccc(OC)cc12`, the TGI in the assay on BT-549 breast was 32.9 µM; in the assay with HOP-62 NSCLC, 31.1 µM; in the assay with HOP-92 NSCLC, 31.3 µM; in the assay on MOLT-4 leukemia, above 100 µM; with NCI-H23 lung, 31.6 µM; in the assay on SF-268 CNS, 34.2 µM. Moreover, the TGI in the assay on SF-295 CNS was 32 µM; with SK-MEL-5 melanoma it was 34.3 µM; in the assay with SR leukemia it was above 100 µM; in the assay on T-47D breast, 54 µM.
For `OCC(O)C(O)C(O)C(O)CNCCO/N=C1/C(c2c(O)[nH]c3ccccc23)=Nc2ccccc21` (stereo not given), the TGI stood at 41.7 µM in the assay with BT-549 breast; 22.9 µM in the assay with HOP-62 NSCLC; 26.9 µM with HOP-92 NSCLC; 36.3 µM in the assay on MOLT-4 leukemia; 23.7 µM with NCI-H23 lung; 28 µM in the assay on SF-268 CNS. Further, the TGI is above 50 µM in the assay with SF-295 CNS, 16.3 µM in the assay on SK-MEL-5 melanoma, 25.3 µM in the assay with SR leukemia and 22.5 µM in the assay with T-47D breast.
In the case of `CC(C)C1CC(CO)(CNc2nc(N)nc(Cl)c2/C=N\O)C1` (stereo not given), the TGI is 28.7 µM in the assay with BT-549 breast; above 100 µM in the assay on HOP-62 NSCLC; 35.2 µM in the assay on HOP-92 NSCLC; 63 µM in the assay on MOLT-4 leukemia; 24.3 µM with NCI-H23 lung; above 79.5 µM in the assay with SF-268 CNS. The TGI is above 68.2 µM with SF-295 CNS, 2.82 µM with SK-MEL-5 melanoma, above 54.2 µM in the assay with SR leukemia and 4.91 µM in the assay on T-47D breast.
As to `CC1(c2nc3ccccc3[nH]2)CCC(C#N)C(C)(C)O1` (stereo not given), the TGI with BT-549 breast, with HOP-62 NSCLC, with HOP-92 NSCLC, with MOLT-4 leukemia, in the assay with NCI-H23 lung and in the assay on SF-268 CNS was above 100 µM each time. The TGI in the assay with SF-295 CNS, in the assay with SK-MEL-5 melanoma, in the assay with SR leukemia and with T-47D breast was above 100 µM throughout.
Consider `N#CC(NNC(=O)c1c(Cl)c(Cl)c(Cl)c(Cl)c1-c1nc2ccc(C(=O)c3ccccc3)cc2[nH]1)c1ccccc1` (stereo not given), for which the TGI in the assay with BT-549 breast is above 100 µM; with HOP-62 NSCLC, 63.7 µM; with HOP-92 NSCLC, above 100 µM; in the assay with MOLT-4 leukemia it was 27.7 µM; in the assay with NCI-H23 lung, 90.3 µM; in the assay on SF-268 CNS, above 100 µM. Besides, the TGI turned out to be 22.1 µM in the assay on SF-295 CNS, 13.3 µM in the assay with SK-MEL-5 melanoma, 11.2 µM in the assay on SR leukemia and 98.8 µM in the assay on T-47D breast.
Turning to `CC(C)=CC1C(COC(=O)c2ccccc2Cl)C1(C)C` (stereo not given), the TGI with BT-549 breast is 95.1 µM; with HOP-62 NSCLC it was above 100 µM; in the assay on HOP-92 NSCLC, 86.3 µM; with MOLT-4 leukemia, above 100 µM; in the assay on NCI-H23 lung, above 100 µM; in the assay on SF-268 CNS, above 100 µM. Also, the TGI is above 100 µM in the assay on SF-295 CNS, 65.3 µM in the assay on SK-MEL-5 melanoma, above 100 µM with SR leukemia and above 100 µM in the assay on T-47D breast.
Consider `COc1ccc(C(=O)N2CCN(c3ccc4c(c3)OCC(=O)N4)CC2)cc1OC`, for which the TGI in the assay with BT-549 breast, in the assay on HOP-62 NSCLC, with HOP-92 NSCLC, in the assay with MOLT-4 leukemia, in the assay with NCI-H23 lung and with SF-268 CNS was above 100 µM each time. Besides, the TGI in the assay with SF-295 CNS, in the assay on SK-MEL-5 melanoma, with SR leukemia and in the assay with T-47D breast was above 100 µM in each case.
In the case of `COc1ccc(Cc2cc(OC)c(OC)c(OC)c2)cc1`, the TGI is 75.6 µM in the assay on BT-549 breast; above 100 µM in the assay on HOP-62 NSCLC; 85.6 µM in the assay with HOP-92 NSCLC; 23.9 µM in the assay on MOLT-4 leukemia; 15.3 µM in the assay on NCI-H23 lung; above 100 µM in the assay with SF-268 CNS. Moreover, the TGI in the assay with SF-295 CNS was above 29.4 µM; in the assay with SK-MEL-5 melanoma it was 21.2 µM; in the assay on SR leukemia, 1.4 µM; with T-47D breast, 89.8 µM.
For `COc1ccc(OC)c(N=Cc2cc(OC)c(OC)c(OC)c2)c1`, the TGI is above 100 µM with BT-549 breast; above 100 µM with HOP-62 NSCLC; above 78 µM in the assay with HOP-92 NSCLC; above 100 µM with MOLT-4 leukemia; above 100 µM with NCI-H23 lung; above 100 µM with SF-268 CNS. Moreover, the TGI with SF-295 CNS, in the assay with SK-MEL-5 melanoma, in the assay on SR leukemia and in the assay on T-47D breast was above 100 µM throughout.
Turning to `CC(O)CC(=O)CO[C@H]1[C@H](O)[C@@H](O)[C@@H](O)[C@@H]2NC(=O)c3c(cc4c(c3O)OCO4)[C@H]21` (stereo not given in full), the TGI was found to be 0.482 µM in the assay with BT-549 breast; 0.319 µM in the assay with HOP-62 NSCLC; 0.64 µM with HOP-92 NSCLC; 0.321 µM with MOLT-4 leukemia; 0.457 µM with NCI-H23 lung; 0.0626 µM with SF-268 CNS. Also, the TGI in the assay on SF-295 CNS is 0.314 µM; in the assay on SK-MEL-5 melanoma, 0.0623 µM; in the assay on SR leukemia, 0.125 µM; in the assay on T-47D breast, 0.109 µM.

The values above are taken from PubChem BioAssay (NCI).
